Columns and labels:
Rat kidneys = test: Machine perfusion of rat kidneys for 24 hours, transplantation, post-transplant serum creatinine; type: in vivo; conditions: component(s) added to Belzer solution; kidneys preserved under machine perfusion for 24 hours, then transplanted; serum creatinine measured hourly for 6 hours; control BELZ solution; FIG. 2
Method: Rat kidneys were recovered as above. Seven different solutions were prepared for comparison according to Table 2. […] The kidneys were preserved under machine perfusion for 24 hours with the respective solutions, and transplanted into recipient animals. Post-transplant serum creatinine (S. CREAT) was measured hourly for 6 hours.

[1] = system: Sprague-Dawley rat kidneys; test: Cold storage of rat kidneys for 24 hours, transplantation, post-transplant serum creatinine; type: in vivo; conditions: component(s) added to Viaspan; kidneys preserved under static conditions for 24 hours at 4° C, then transplanted; serum creatinine measured hourly for 6 hours; control VIASP solution; FIG. 1
Method: Sprague-Dawley rat kidneys were recovered in the normal fashion and were exsanguinated and cooled to 4° C. Experimental components were added to the solution to test for improvements in post-transplant function (indicated by serum creatinine levels). Seven different solutions were prepared for comparison according to Table 1. […] The kidneys were preserved under static conditions for 24 hours with the respective solutions, and transplanted into recipient animals. Post-transplant serum creatinine (S. CREAT) was measured hourly for 6 hours.

SMILES	improvement in post-transplant function (serum creatinine) compared to the control (Rat kidneys)	improvement in post-transplant function (indicated by serum creatinine levels) compared to the control [1]
N=C(N)NCCC[C@H](N)C(=O)O [L-arginine]	Minimal, but statistically insignificant improvements	Minimal, but statistically insignificant improvements
CC(=O)N[C@@H](CS)C(=O)O [N-acetylcystein]	Minimal, but statistically insignificant improvements	Minimal, but statistically insignificant improvements
O=[N+]([O-])OCC(CO[N+](=O)[O-])O[N+](=O)[O-] [nitroglycerin]	Minimal, but statistically insignificant improvements	Minimal, but statistically insignificant improvements
CCCCC[C@H](O)/C=C/[C@H]1[C@H](O)CC(=O)[C@@H]1CCCCCCC(=O)O [prostaglandin E1]	Minimal, but statistically insignificant improvements	Minimal, but statistically insignificant improvements

Source: patent publication US20100311035A1, “Preservation solution for organs and biological tissues” (priority 2005, published 2010)
